Source: patent US6465221B1, “Method of producing a taxane-type diterpene” (Mitsui Chemicals, Inc., priority 1994, dated 2002)

Tests used:
[1] = system: cultured cells of Taxus baccata LINN; assay: Taxus baccata cell culture with cyclic polysaccharides; assay type: cell-based
Experimental: (§1) A part of stem of Taxus baccata LINN which had been previously sterilized with 2% antiformin solution or 70% ethanol solution or the like, was placed on solid Woody Plant Medium (containing gelan gum of 0.25% by weight) to which naphthalenacetic acid had been added to give the concentration of 10^−5 M, and static culture was carried out at 25° C. in a dark place to provide callus of Taxus baccata LINN. 0.1 g (fresh weight) of the callus was inoculated to a well having an inner diameter of 18 mm, containing 1 ml of liquid Woody Plant Medium to which the above-mentioned component was added to give the same concentration and shake culture was carried out with a rotary shaker (amplification of 25 mm, 120 rpm) and the callus was subcultured in every 28 days to accelerate the growth rate thereof.
One gram (fresh weight) of the cultured cells thus obtained was inoculated to an Erlenmeyer flask containing 20 ml of liquid Woody Plant Medium to which the above-mentioned component was added to give the same concentration, and shake culture was carried out at 25° C. for 14 days. […]
After completing the culture, cultured cells of Taxus baccata LINN were harvested by filtration and lyophilized, then the dry weight was measured to obtain the yeild thereof per liter of the liquid medium.

[2] = system: cultured cells of Taxus baccata LINN; assay: Taxus baccata cell culture with cyclic polysaccharides and methyl ester of jasmonic acid; assay type: cell-based
Experimental: […] After completing the culture, cultured cells of Taxus baccata LINN were harvested by filtration and lyophilized, then the dry weight was measured to obtain the yeild thereof per liter of the liquid medium.

[3] = system: cultured cells of Taxus media; conditions: α-linolenic acid, concentration not given, 14 days
Experimental: Two grams (fresh weight) of the cultured cells thus obtained by liquid culture was inoculated to 20 ml of liquid Woody Plant Medium (contained in an Erlenmeyer flask of 100 ml) to which α-linolenic acid of 0.01-1000 μM (dissolved in ethanol) was added, and shake culture was carried out at 25° C. in a dark place with a rotary shaker (amplification of 25 mm, 100 rpm).
After completing the culture for 14 days, cultured cells were harvested by filtration and lyophilized, then the dry weight was measured to obtain the yield thereof. Taxane-type diterpenes were extracted from the dried callus and the culture medium with methanol or the like, and they were determined by comparing with standard taxol using high performance liquid chromatography to measure the yield of taxol.

[4] = system: cultured cells of Taxus baccata LINN; assay: Taxus baccata cell culture with fatty acids or natural oil; assay type: cell-based; conditions: 14 days
Experimental: One gram (fresh weight) of the callus was inoculated to an Erlenmeyer flask containing 20 ml of liquid Woody Plant Medium and shake culture was carried out with a rotary shaker (amplification of 25 mm, 100 rpm) and the callus was subcultured in every 21 days to accelerate the growth rate thereof.

[5] = system: cultured cells of Taxus media; assay: Taxus media cell culture with coronatine; assay type: cell-based; conditions: concentration of coronatines 1 μM
Experimental: (§2) One gram (fresh weight) of the cultured cells thus obtained was inoculated to an Erlenmeyer flask containing 20 ml of liquid Woody Plant Medium to which the above-mentioned component was added to give the same concentration, and shake culture was carried out at 25° C. for 14 days. On the 14th day after starting the culture, 50 μl of coronatine [formula (IV)] was added as coronatines to the culture medium to give the final concentration of 0.001-1000 μM and the culture was further carried out for another 7 days.
(§3) After completing the culture, cultured cells of Taxus baccata LINN were harvested by filtration and lyophilized, then the dry weight was measured to obtain the yeild of the cultured cells per liter of the liquid medium.
Example 7 was repeated except that cultured cells of Taxus media, which was obtained in the process analogous to that of said example were used and coronatine was added as coronatines to give the final concentration of 1 μM.

[6] = system: cultured cells of Taxus baccata LINN; assay: Taxus baccata cell culture with coronatines; assay type: cell-based
Experimental: as §1, with “at 25 °” for “at 25°”, “LINN. One gram” for “LINN. 0.1 g”, “to” for “to a well having”, “an Erlenmeyer flask” for “an inner diameter of 18 mm,”, “containing 20” for “containing 1”, “every 21” for “every 28”
as §2, §3

[7] = concentration of β-cyclodextrin 0.01 mM
[8] = concentration of β-cyclodextrin 0.1 mM
[9] = concentration of β-cyclodextrin 1 mM
[10] = concentration of β-cyclodextrin 10 mM
[11] = β-cyclodextrin 0.01 mM + methyl ester of jasmonic acid 100 μM
[12] = β-cyclodextrin 0.1 mM + methyl ester of jasmonic acid 100 μM
[13] = β-cyclodextrin 1 mM + methyl ester of jasmonic acid 100 μM
[14] = β-cyclodextrin 10 mM + methyl ester of jasmonic acid 100 μM
[15] = concentration of α-linolenic acid 0.01 μM
[16] = concentration of α-linolenic acid 0.1 μM
[17] = concentration of α-linolenic acid 1 μM
[18] = concentration of α-linolenic acid 10 μM
[19] = concentration of α-linolenic acid 100 μM
[20] = concentration of α-linolenic acid 500 μM
[21] = concentration of α-linolenic acid 1000 μM
[22] = 50 mM, 6-O-α-D-glucosyl-β-cyclodextrin was used
[23] = 6-O-α-D-glucosyl-β-cyclodextrin 50 mM + methyl ester of jasmonic acid 100 μM
[24] = concentration of coronatines 0.001 μM
[25] = concentration of coronatines 0.01 μM
[26] = concentration of coronatines 0.1 μM
[27] = concentration of coronatines 1 μM
[28] = concentration of coronatines 10 μM
[29] = concentration of coronatines 100 μM
[30] = concentration of coronatines 1000 μM

OC[C@H]1O[C@@H]2O[C@H]3[C@H](O)[C@@H](O)[C@@H](O[C@H]4[C@H](O)[C@@H](O)[C@@H](O[C@H]5[C@H](O)[C@@H](O)[C@@H](O[C@H]6[C@H](O)[C@@H](O)[C@@H](O[C@H]7[C@H](O)[C@@H](O)[C@@H](O[C@H]8[C@H](O)[C@@H](O)[C@@H](O[C@H]1[C@H](O)[C@H]2O)O[C@@H]8CO)O[C@@H]7CO)O[C@@H]6CO)O[C@@H]5CO)O[C@@H]4CO)O[C@@H]3CO [Example 13, β-cyclodextrin]
yeild of cultured cells [1, 7]: 19.0 g/L
yield of baccatin III [1, 7]: 2.5 mg/L
yield of cephalomannine [1, 7]: 0.7 mg/L
yield of taxol [1, 7]: 4.0 mg/L
yeild of cultured cells [1, 8]: 19.1 g/L
yield of baccatin III [1, 8]: 3.0 mg/L
yield of cephalomannine [1, 8]: 2.6 mg/L
yield of taxol [1, 8]: 4.2 mg/L
yeild of cultured cells [1, 9]: 20.1 g/L
yield of baccatin III [1, 9]: 4.2 mg/L
yield of cephalomannine [1, 9]: 3.0 mg/L
yield of taxol [1, 9]: 6.5 mg/L
yeild of cultured cells [1, 10]: 20.1 g/L
yield of baccatin III [1, 10]: 5.0 mg/L
yield of cephalomannine [1, 10]: 2.2 mg/L
yield of taxol [1, 10]: 10.5 mg/L
yield of baccatin III [2, 11]: 54.6 mg/L
yield of cephalomannine [2, 11]: 8.0 mg/L
yield of cultured cells [2, 11]: 15.6 g/L
yield of taxol [2, 11]: 28.5 mg/L
yield of baccatin III [2, 12]: 62.6 mg/L
yield of cephalomannine [2, 12]: 9.6 mg/L
yield of cultured cells [2, 12]: 16.3 g/L
yield of taxol [2, 12]: 35.4 mg/L
yield of baccatin III [2, 13]: 76.0 mg/L
yield of cephalomannine [2, 13]: 10.1 mg/L
yield of cultured cells [2, 13]: 15.4 g/L
yield of taxol [2, 13]: 42.3 mg/L
yield of baccatin III [2, 14]: 54.2 mg/L
yield of cephalomannine [2, 14]: 12.5 mg/L
yield of cultured cells [2, 14]: 17.3 g/L
yield of taxol [2, 14]: 64.4 mg/L

CC/C=C\C/C=C\C/C=C\CCCCCCCC(=O)O [Example 26, α-linolenic acid]
yield of cells [3]: 20 g/L
yield of taxane-type diterpenes, baccatin III [3]: 10 mg/L
yield of taxane-type diterpenes, cephalomannine [3]: 2 mg/L
yield of taxane-type diterpenes, taxol [3]: 22 mg/L
yield of cells [4, 15]: 20 g/L
yield of taxane-type diterpenes, baccatin III [4, 15]: 2 mg/L
yield of taxane-type diterpenes, cephalomannine [4, 15]: 2 mg/L
yield of taxane-type diterpenes, taxol [4, 15]: 5 mg/L
yield of cells [4, 16]: 20 g/L
yield of taxane-type diterpenes, baccatin III [4, 16]: 2 mg/L
yield of taxane-type diterpenes, cephalomannine [4, 16]: 2 mg/L
yield of taxane-type diterpenes, taxol [4, 16]: 6 mg/L
yield of cells [4, 17]: 20 g/L
yield of taxane-type diterpenes, baccatin III [4, 17]: 2 mg/L
yield of taxane-type diterpenes, cephalomannine [4, 17]: 2 mg/L
yield of taxane-type diterpenes, taxol [4, 17]: 6 mg/L
yield of cells [4, 18]: 20 g/L
yield of taxane-type diterpenes, baccatin III [4, 18]: 3 mg/L
yield of taxane-type diterpenes, cephalomannine [4, 18]: 4 mg/L
yield of taxane-type diterpenes, taxol [4, 18]: 8 mg/L
yield of cells [4, 19]: 19 g/L
yield of taxane-type diterpenes, baccatin III [4, 19]: 6 mg/L
yield of taxane-type diterpenes, cephalomannine [4, 19]: 4 mg/L
yield of taxane-type diterpenes, taxol [4, 19]: 19 mg/L
yield of cells [4, 20]: 14 g/L
yield of taxane-type diterpenes, baccatin III [4, 20]: 4 mg/L
yield of taxane-type diterpenes, cephalomannine [4, 20]: 3 mg/L
yield of taxane-type diterpenes, taxol [4, 20]: 12 mg/L
yield of cells [4, 21]: 12 g/L
yield of taxane-type diterpenes, baccatin III [4, 21]: 2 mg/L
yield of taxane-type diterpenes, cephalomannine [4, 21]: 2 mg/L
yield of taxane-type diterpenes, taxol [4, 21]: 7 mg/L

OC[C@H]1O[C@H](OC[C@H]2O[C@@H]3O[C@H]4[C@H](O)[C@@H](O)[C@@H](O[C@H]5[C@H](O)[C@@H](O)[C@@H](O[C@H]6[C@H](O)[C@@H](O)[C@@H](O[C@H]7[C@H](O)[C@@H](O)[C@@H](O[C@H]8[C@H](O)[C@@H](O)[C@@H](O[C@H]9[C@H](O)[C@@H](O)[C@@H](O[C@H]2[C@H](O)[C@H]3O)O[C@@H]9CO)O[C@@H]8CO)O[C@@H]7CO)O[C@@H]6CO)O[C@@H]5CO)O[C@@H]4CO)[C@H](O)[C@@H](O)[C@@H]1O [Example 17, 6-O-α-D-glucosyl-β-cyclodextrin]
yeild of cultured cells [1, 22]: 20.5 g/L
yield of baccatin III [1, 22]: 3.5 mg/L
yield of cephalomannine [1, 22]: 1.3 mg/L
yield of taxol [1, 22]: 8.2 mg/L
yield of baccatin III [2, 23]: 53.0 mg/L
yield of cephalomannine [2, 23]: 11.1 mg/L
yield of cultured cells [2, 23]: 17.5 g/L
yield of taxol [2, 23]: 45.9 mg/L

CCC1C=C(C(=O)NC2(C(=O)O)CC2CC)C2CCC(=O)C2C1 (centres unmarked) [Example 7, coronatine]
yield of baccatin III [5]: 26.5 mg/L
yield of cephalomannine [5]: 15.1 mg/L
yield of cultured cells [5]: 18.6 g/L
yield of taxol [5]: 65.2 mg/L
yield of baccatin III [6, 24]: 5.0 mg/L
yield of cephalomannine [6, 24]: 3.8 mg/L
yield of cultured cells [6, 24]: 20.1 g/L
yield of taxol [6, 24]: 9.6 mg/L
yield of baccatin III [6, 25]: 8.9 mg/L
yield of cephalomannine [6, 25]: 10.2 mg/L
yield of cultured cells [6, 25]: 20.2 g/L
yield of taxol [6, 25]: 15.2 mg/L
yield of baccatin III [6, 26]: 18.7 mg/L
yield of cephalomannine [6, 26]: 12.3 mg/L
yield of cultured cells [6, 26]: 18.6 g/L
yield of taxol [6, 26]: 30.1 mg/L
yield of baccatin III [6, 27]: 28.4 mg/L
yield of cephalomannine [6, 27]: 11.4 mg/L
yield of cultured cells [6, 27]: 18.4 g/L
yield of taxol [6, 27]: 60.0 mg/L
yield of baccatin III [6, 28]: 38.5 mg/L
yield of cephalomannine [6, 28]: 8.8 mg/L
yield of cultured cells [6, 28]: 17.8 g/L
yield of taxol [6, 28]: 49.4 mg/L
yield of baccatin III [6, 29]: 44.1 mg/L
yield of cephalomannine [6, 29]: 7.9 mg/L
yield of cultured cells [6, 29]: 17.5 g/L
yield of taxol [6, 29]: 58.0 mg/L
yield of baccatin III [6, 30]: 13.2 mg/L
yield of cephalomannine [6, 30]: 6.5 mg/L
yield of cultured cells [6, 30]: 15.0 g/L
yield of taxol [6, 30]: 23.1 mg/L
